Assay results: PubChem BioAssay (NCI)
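Cells were grown in 96-well plates and exposed to each compound for 48 hours at five concentrations; endpoints were interpolated linearly between bracketing concentrations, or set to the highest concentration if not reached. GI50 = concentration required for 50% inhibition of growth. TGI is the concentration that stops growth completely.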

How the values were obtained:
Assay in all cases: NCI anticancer screen, dose series, 48 h
[1] = test system: NCI-H460 lung
[2] = test system: HT29 colon
[3] = test system: ACHN renal
[4] = test system: SF-268 CNS
[5] = test system: MDA-MB-435
[6] = test system: NCI-H23 lung
[7] = test system: SW-620 colon
[8] = test system: MALME-3M melanoma
[9] = test system: A549 NSCLC
[10] = test system: OVCAR-5 ovarian
[11] = test system: SF-295 CNS
[12] = test system: HS 578T breast
[13] = test system: DU-145 prostate
[14] = test system: RXF 393 renal
[15] = test system: SN12C renal
[16] = test system: SNB-19 CNS
[17] = test system: EKVX NSCLC
[18] = test system: CAKI-1 renal
[19] = test system: A498 renal
[20] = test system: SK-MEL-2 melanoma
[21] = test system: U251 CNS
[22] = test system: OVCAR-8 ovarian
[23] = test system: 786-0 renal
[24] = test system: T-47D breast
[25] = test system: NCI/ADR-RES ovarian
[26] = test system: HCT-15 colon
[27] = test system: SK-MEL-5 melanoma
[28] = test system: UACC-257 melanoma
[29] = test system: SF-539 CNS
[30] = test system: SK-MEL-28 melanoma
[31] = test system: NCI-H522 lung
[32] = test system: HCC-2998 colon
[33] = test system: RPMI-8226 leukemia
[34] = test system: UACC-62 melanoma
[35] = test system: CCRF-CEM leukemia
[36] = test system: K-562 leukemia
[37] = test system: IGROV1 ovarian
[38] = test system: NCI-H226 lung
[39] = test system: BT-549 breast
[40] = test system: MOLT-4 leukemia
[41] = test system: MDA-MB-231 breast
[42] = test system: MCF7 breast
[43] = test system: TK-10 renal
[44] = test system: HCT-116 colon
[45] = test system: HOP-92 NSCLC
[46] = test system: SK-OV-3 ovarian
[47] = test system: OVCAR-4 ovarian
[48] = test system: UO-31 renal
[49] = test system: COLO 205 colon
[50] = test system: PC-3 prostate
[51] = test system: KM12 colon
[52] = test system: HOP-62 NSCLC
[53] = test system: LOX IMVI melanoma
[54] = test system: OVCAR-3 ovarian

What does the source list for `NS(=O)(=O)c1ccc(N(/C=C/C(=O)C(F)(F)F)CC(=O)c2ccc(Cl)cc2)cc1`?
GI50 [1]: 31.8 µM; TGI [1]: 89 µM; GI50 [2]: 35.6 µM; TGI [2]: > 100 µM; GI50 [3]: 30.4 µM; TGI [3]: 91.4 µM; GI50 [4]: 34.5 µM; TGI [4]: > 100 µM; GI50 [5]: > 100 µM; TGI [5]: > 100 µM; GI50 [6]: 37.5 µM; TGI [6]: > 100 µM; GI50 [7]: 57 µM; TGI [7]: > 100 µM; GI50 [8]: 24.9 µM; TGI [8]: 92.6 µM; GI50 [9]: 49.7 µM; TGI [9]: > 100 µM; GI50 [10]: 57 µM; TGI [10]: > 100 µM; GI50 [11]: 26.2 µM; TGI [11]: 74.4 µM; GI50 [12]: > 100 µM; TGI [12]: > 100 µM; GI50 [13]: 93.3 µM; TGI [13]: > 100 µM; GI50 [14]: > 100 µM; TGI [14]: > 100 µM; GI50 [15]: 29.3 µM; TGI [15]: > 100 µM; GI50 [16]: 51.2 µM; TGI [16]: > 100 µM; GI50 [17]: 54.2 µM; TGI [17]: > 100 µM; GI50 [18]: 24.4 µM; TGI [18]: 66 µM; GI50 [19]: > 100 µM; TGI [19]: > 100 µM; GI50 [20]: 38.1 µM; TGI [20]: > 100 µM; GI50 [21]: 33 µM; TGI [21]: > 100 µM; GI50 [22]: 43.4 µM; TGI [22]: > 100 µM; GI50 [23]: 45.2 µM; TGI [23]: > 100 µM; GI50 [24]: 63.6 µM; TGI [24]: > 100 µM; GI50 [25]: 47.6 µM; TGI [25]: > 100 µM; GI50 [26]: 35.5 µM; TGI [26]: > 100 µM; GI50 [27]: 38.9 µM; TGI [27]: > 100 µM; GI50 [28]: 50.9 µM; TGI [28]: > 100 µM; GI50 [29]: 43.4 µM; TGI [29]: > 100 µM; GI50 [30]: > 100 µM; TGI [30]: > 100 µM; GI50 [31]: 24.3 µM; TGI [31]: 72.2 µM; GI50 [32]: 55.7 µM; TGI [32]: > 100 µM; GI50 [33]: 20.2 µM; TGI [33]: 53.6 µM; GI50 [34]: 27.7 µM; TGI [34]: 91.6 µM; GI50 [35]: 20.4 µM; TGI [35]: 44.5 µM; GI50 [36]: 33.5 µM; TGI [36]: 93.6 µM; GI50 [37]: 22.5 µM; TGI [37]: 81.7 µM; GI50 [38]: 28.9 µM; TGI [38]: 94.1 µM; GI50 [39]: 44.5 µM; TGI [39]: > 100 µM; GI50 [40]: 32.9 µM; TGI [40]: 89.9 µM; GI50 [41]: 36.3 µM; TGI [41]: > 100 µM; GI50 [42]: 15.8 µM; TGI [42]: 49.7 µM; GI50 [43]: 29.7 µM; TGI [43]: 87.8 µM; GI50 [44]: 18.7 µM; TGI [44]: 40 µM; GI50 [45]: 22.3 µM; TGI [45]: 86.7 µM; GI50 [46]: 69 µM; TGI [46]: > 100 µM; GI50 [47]: 60 µM; TGI [47]: > 100 µM; GI50 [48]: 45.3 µM; TGI [48]: > 100 µM; GI50 [49]: 32.2 µM; TGI [49]: > 100 µM; GI50 [50]: 26.4 µM; TGI [50]: 84.1 µM; GI50 [51]: 24.2 µM; TGI [51]: 73.7 µM; GI50 [52]: 33 µM; TGI [52]: > 100 µM; GI50 [53]: 31.2 µM; TGI [53]: 98.9 µM; GI50 [54]: 31.8 µM; TGI [54]: > 100 µM
